Assay results reported in US11331294B2, “Benzoquinone derivative E3330 in combination with chemotherapeutic agents for the treatment of bladder cancer” (Indiana University Research and Technology Corporation, priority 2007, dated 2022).

What was measured:
endothelial cells = assay: In vitro tube formation assay; format: cell-based
Text: In vitro tube formation assay.

pancreatic tumor cells = assay: Annexin V/PI apoptosis assay in pancreatic tumor cells; format: cell-based
Protocol: APX3330 in combination with chemotherapeutic Gemcitabine. […] To analyze the cells for apoptosis, cells were plated and allowed to attach overnight. Cells were treated with APX3330 alone or with gemcitabine. Apoptosis was assayed about 24 and 48 hr following treatment. Cells were trypsinized, pelleted, washed in ice-cold PBS, and resuspended in 1× binding buffer [about 10 mmol/L HEPES/NaOH (pH 7.4), 140 mmol/L NaCl, 2.5 mmol/L CaCl2]. Apoptosis was analyzed using the Alexa Fluor 488 AnnexinV from Vybrant Apoptosis Assay kit in combination with propidium iodide (Molecular Probes, Eugene, Oreg.) as described previously Clinical Cancer Research 13, 260-267, Jan. 1, 2007. Cells that were strongly Annexin positive were considered positive for apoptosis. The samples were analyzed by flow cytometry in the Indiana University Cancer Center flow cytometry facility.
APX3330 in combination with Methoxyamine-pancreatic cells. […] To analyze the cells for apoptosis, cells were plated and allowed to attach overnight. […] Apoptosis was analyzed using the Alexa Fluor 488 Annexin V from Vybrant Apoptosis Assay kit in combination with propidium iodide (Molecular Probes, Eugene, Oreg.) as described previously Clinical Cancer Research 13, 260-267, Jan. […] The samples were analyzed by flow cytometry in the Indiana University Cancer Center flow cytometry facility.

[1] = Preliminary in vivo safety in mice (body weight); settings: male mice, under 50 mg/kg

CCCCCCCCC/C(=C\C1=C(C)C(=O)C(OC)=C(OC)C1=O)C(=O)O [APX3330]
tube formation, combination of AVASTIN and APX3330 (endothelial cells; combination use with AVASTIN): synergistically more effective than either alone
formation of blood-vessel-like tubules (endothelial cells; dose dependent): prevented formation of blood-vessel-like tubules
apoptosis in combination with methoxyamine (pancreatic tumor cells; about 24 and 96 hr): enhanced the apoptosis inducing effects of methoxyamine
apoptosis in combination with gemcitabine (pancreatic tumor cells; gemcitabine about 0.25 μM, 24 and 48 hr): enhanced the apoptosis inducing effects of gemcitabine
mouse toxicity [1]: No mouse toxicity was observed
